Data set [1] concerns normal human epidermal melanocytes (NHEM). The data set is described as follows: Cytotoxicity MTT assay. The class given is cell-based. The conditions noted are these: 0, 12.5, 25, 50 nM. Here is the method: (§1) The synergism and antagonism (CI value) were determined and analyzed using CompuSyn 1.0.
(§2) For cytotoxicity test, normal NHDF (5000 cells/well) and NHEM cell line (3000 cells/well) were planted into 96-well plates. For cell proliferation assay, A375 (1500 cells/well), SK-MEL-28 (3000 cells/well), SK-MEL-2 (4000 cells/well), and HCT116 (1500 cells/well) were planted into 96-well plates, determined concentration of drug was added after culture for 24 h. The viability of the cells was detected within 72 h using MTT solution (5 mg/mL). The absorbance at 570/490 nm was quantified by the use of the microplate reader.
(Tetrazolium assays rely on reduction of a dye to a coloured formazan, in cell work by metabolically active cells.)

Data set [2] concerns normal human dermal fibroblasts (NHDF). The data set is described as follows: Cytotoxicity MTT assay. The format is cell-based. As to conditions: 0, 12.5, 25, 50 nM. Here is the method: as §1, §2
In data set [3] the test system is MEK1/2. The data set is described as follows: Erianin-conjugated Sepharose 4B bead pull-down assay. The format is binding, human. As to conditions: in vitro and ex vivo (A375 cell lysate). Here is the method: 293 T cells were transfected with plasmids of pcDNA3.1-3×Flag-C-MAP2K1/MAP2K1 (K97A, M146A), MAP2K2/MAP2K1 (K101A, M150A), or CRAF/CRAF (K375A). […]
Cell lysate (500 μg) or recombinant proteins (200 ng) were incubated with erianin-CNBr activated sepharose 4B overnight at 4 °C, and the protein-beads complex was washed four times by the use of rotational incubator to remove non-specific binding. Western blotting was developed to check the pull-down bands.

Data set [4] deals with MAPK signaling pathway (phospho-CRAF, phospho-MEK1/2, phospho-ERK1/2). The experiment in a line: Western blotting of MAPK signaling pathway in cells. The conditions noted are these: both BRAF V600E and RAS mutant cell lines, 24 h. In general terms: Immunoblotting shows a protein as a band on a membrane.
Text: Data were shown as means ± S.D. of three independent experiments. The asterisks (*p < 0.05, **p < 0.01, ***p < 0.001) indicate a significant difference in the expression of phosphorylation of ERK1 or ERK2 vs total ERK1 or ERK2 in control and erianin-treated group. g The luminescent ADP detection assay was developed to detect the luminescence signal of ATP-to-ADP using the same concentration kinases and substrates described in above kinase assay.
Protein was quantified using a BCA assay kit and then western blotting was conducted.
Data set [5] has as its target T1, PDGFRβ(h) (Homo sapiens, UniProt P09619).
T1 construct: purchased Eurofins KinaseProfiler
The experiment in a line: KinaseProfiler enzyme profiling. The format is biochemical. Here is the method: (§3) Enzyme profiling services were provided by KinaseProfiler™ (Eurofin, Brussels, Belgium). The concentration of erianin was 100 nM, and total 70 kinases were tested in this in vitro screening and profiling services (2 repetitions). For more details, refer to the manufacturer’s instructions (www.eurofinsdiscoveryservices.com).

Data set [6] deals with T2, PDGFRα(h) (Homo sapiens, UniProt P16234).
T2 construct: purchased Eurofins KinaseProfiler
The data set is described as follows: KinaseProfiler enzyme profiling. The format is biochemical. Here is the method: as §3

For data set [7], the target named is T3, JAK2(h) (Homo sapiens, UniProt O60674).
T3 construct: purchased Eurofins KinaseProfiler
The data set is described as follows: KinaseProfiler enzyme profiling. The format is biochemical. Here is the method:
as §3

The target of data set [8] is T4, JNK2α2(h) (Homo sapiens, UniProt P45984).
T4 construct: purchased Eurofins KinaseProfiler
The data set is described as follows: KinaseProfiler enzyme profiling. The format is biochemical. The method, then: as §3

Data set [9] addresses T5, SAPK3(h) (Homo sapiens, UniProt P53778).
T5 construct: purchased Eurofins KinaseProfiler
The data set is described as follows: KinaseProfiler enzyme profiling. The format is biochemical. The method, then: as §3

Data set [10] addresses T6, FGFR1(h) (Homo sapiens, UniProt P11362).
T6 construct: purchased Eurofins KinaseProfiler
The experiment in a line: KinaseProfiler enzyme profiling. The class given is biochemical. Here is the method: as §3

In data set [11] the target is T7, JNK1α1(h) (Homo sapiens, UniProt P45983).
T7 construct: purchased Eurofins KinaseProfiler
The data set is described as follows: KinaseProfiler enzyme profiling. The class given is biochemical. Here is the method: as §3

Data set [12] addresses T8, PKCα(h) (Homo sapiens, UniProt P17252).
T8 construct: purchased Eurofins KinaseProfiler
The experiment in a line: KinaseProfiler enzyme profiling. The format is biochemical. Here is the method: as §3

Data set [13] concerns the target T9, AMPKα2(h) (Homo sapiens, UniProt P54646).
T9 construct: purchased Eurofins KinaseProfiler
The data set is described as follows: KinaseProfiler enzyme profiling. The format is biochemical. The method, then: as §3

Data set [14] addresses T10, GSK3β(h) (Homo sapiens, UniProt P49841).
T10 construct: purchased Eurofins KinaseProfiler
The data set is described as follows: KinaseProfiler enzyme profiling. The class given is biochemical. The method, then: as §3

Data set [15] concerns the target T11, PKBα(h) (Homo sapiens, UniProt P31749).
T11 construct: purchased Eurofins KinaseProfiler
The experiment in a line: KinaseProfiler enzyme profiling. The class given is biochemical. The method, then:
as §3

Data set [16] concerns the target T12, PKBβ(h) (Homo sapiens, UniProt P31751).
T12 construct: purchased Eurofins KinaseProfiler
The data set is described as follows: KinaseProfiler enzyme profiling. The class given is biochemical. The method, then:
as §3

The target in data set [17] is T13, IKKβ(h) (Homo sapiens, UniProt O14920).
T13 construct: purchased Eurofins KinaseProfiler
The data set is described as follows: KinaseProfiler enzyme profiling. The format is biochemical. Here is the method: as §3

Data set [18] concerns the target T14, B-Raf(V599E)(h) (Homo sapiens, UniProt P15056, V600E).
T14 construct: purchased Eurofins KinaseProfiler
The experiment in a line: KinaseProfiler enzyme profiling. The class given is biochemical. The method, then: as §3

Data set [19] addresses T15, SAPK4(h) (Homo sapiens, UniProt O15264).
T15 construct: purchased Eurofins KinaseProfiler
The data set is described as follows: KinaseProfiler enzyme profiling. The format is biochemical. Here is the method: as §3

For data set [20], the target named is T16, ATM(h) (Homo sapiens, UniProt Q13315).
T16 construct: purchased Eurofins KinaseProfiler
The experiment in a line: KinaseProfiler enzyme profiling. The class given is biochemical. Here is the method:
as §3

The target of data set [21] is T17, EphB4(h) (Homo sapiens, UniProt P54760).
T17 construct: purchased Eurofins KinaseProfiler
The data set is described as follows: KinaseProfiler enzyme profiling. The class given is biochemical. Here is the method: as §3

Data set [22] concerns the target T18, BRAF WT (381-end) (Homo sapiens, UniProt P15056).
T18 construct: purchased Signal Chem B08-11BG
The experiment in a line: In vitro kinase assay (western blotting). The class given is biochemical. The conditions noted are these: 12.5 to 50 nM. The method, then:
(§4) After incubated with 100–400 μM ATP in kinase assay buffer for 30 min, the phosphorylation of the substrate/total substrate protein was detected by western blotting. For ADP-glo kinase assay, unconsumed ATP was depleted with the addition of ADP-Glo™. Followed by kinase detection reagent to convert ADP to ATP, consumption of ATP was detected to evaluate the kinase activity. For more details, refer to the manufacturer’s instructions of ADP-Glo™ Kinase Assay.
(§5) Figure S2. […] Enzyme kinetics parameters including Vmax and Km were obtained using the Michaelis double-reciprocal curve equation.

Data set [23] addresses T19, BRAF V600E (416-end) (Homo sapiens, UniProt P15056, V600E).
T19 construct: purchased Signal Chem B08-12G
The experiment in a line: In vitro kinase assay (western blotting). The format is biochemical. As to conditions: 12.5 to 50 nM. Here is the method:
as §4, §5

In data set [24] the target is T20, CDK3/cyclinE(h) (Homo sapiens, UniProt Q00526).
T20 construct: purchased Eurofins KinaseProfiler
The experiment in a line: KinaseProfiler enzyme profiling. The format is biochemical. The method, then:
as §3

Data set [25] addresses T21, CDK1/cyclinB(h) (Homo sapiens, UniProt P06493).
T21 construct: purchased Eurofins KinaseProfiler
The data set is described as follows: KinaseProfiler enzyme profiling. The class given is biochemical. Here is the method:
as §3

The target of data set [26] is T22, MSK1(h) (Homo sapiens, UniProt O75582).
T22 construct: purchased Eurofins KinaseProfiler
The experiment in a line: KinaseProfiler enzyme profiling. The format is biochemical. Here is the method: as §3

Data set [27] has as its target T23, NEK2(h) (Homo sapiens, UniProt P51955).
T23 construct: purchased Eurofins KinaseProfiler
The data set is described as follows: KinaseProfiler enzyme profiling. The format is biochemical. The method, then: as §3

Data set [28] concerns the target T24, PDK1(h) (Homo sapiens, UniProt O15530).
T24 construct: purchased Eurofins KinaseProfiler
The data set is described as follows: KinaseProfiler enzyme profiling. The format is biochemical. Here is the method:
as §3

T4 sequence (P45984 whole entry): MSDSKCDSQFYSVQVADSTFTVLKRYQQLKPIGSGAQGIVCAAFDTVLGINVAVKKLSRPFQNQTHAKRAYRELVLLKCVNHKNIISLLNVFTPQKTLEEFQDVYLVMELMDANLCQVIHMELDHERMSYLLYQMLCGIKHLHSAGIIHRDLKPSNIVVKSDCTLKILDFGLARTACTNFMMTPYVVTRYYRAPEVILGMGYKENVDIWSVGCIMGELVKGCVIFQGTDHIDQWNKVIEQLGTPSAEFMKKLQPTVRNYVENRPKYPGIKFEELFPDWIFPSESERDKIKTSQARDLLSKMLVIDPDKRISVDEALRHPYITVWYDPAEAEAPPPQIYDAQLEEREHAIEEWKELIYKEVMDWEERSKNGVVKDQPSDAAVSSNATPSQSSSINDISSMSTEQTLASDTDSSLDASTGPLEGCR
T21 sequence (P06493 whole entry): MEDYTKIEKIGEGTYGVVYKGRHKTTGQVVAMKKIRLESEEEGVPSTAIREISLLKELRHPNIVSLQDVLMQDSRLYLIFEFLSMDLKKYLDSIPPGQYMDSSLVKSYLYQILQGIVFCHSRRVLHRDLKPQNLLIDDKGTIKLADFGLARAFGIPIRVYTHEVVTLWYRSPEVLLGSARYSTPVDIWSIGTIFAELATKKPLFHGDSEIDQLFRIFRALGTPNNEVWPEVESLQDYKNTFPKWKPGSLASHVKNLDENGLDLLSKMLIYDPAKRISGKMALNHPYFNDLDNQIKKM
T21 sequence (P14635 whole entry partner): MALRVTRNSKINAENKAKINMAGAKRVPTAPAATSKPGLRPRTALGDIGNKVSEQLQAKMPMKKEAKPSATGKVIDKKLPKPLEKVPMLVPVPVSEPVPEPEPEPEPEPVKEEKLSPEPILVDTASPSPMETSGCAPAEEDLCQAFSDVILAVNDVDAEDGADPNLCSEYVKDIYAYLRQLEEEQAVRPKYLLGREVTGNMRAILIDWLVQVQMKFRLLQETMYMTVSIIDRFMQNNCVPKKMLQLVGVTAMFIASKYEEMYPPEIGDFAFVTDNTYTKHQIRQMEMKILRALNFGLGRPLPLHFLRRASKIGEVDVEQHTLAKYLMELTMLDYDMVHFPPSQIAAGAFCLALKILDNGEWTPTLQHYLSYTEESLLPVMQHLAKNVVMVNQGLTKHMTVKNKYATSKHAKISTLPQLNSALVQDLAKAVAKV
T2 sequence (P16234 24-1089): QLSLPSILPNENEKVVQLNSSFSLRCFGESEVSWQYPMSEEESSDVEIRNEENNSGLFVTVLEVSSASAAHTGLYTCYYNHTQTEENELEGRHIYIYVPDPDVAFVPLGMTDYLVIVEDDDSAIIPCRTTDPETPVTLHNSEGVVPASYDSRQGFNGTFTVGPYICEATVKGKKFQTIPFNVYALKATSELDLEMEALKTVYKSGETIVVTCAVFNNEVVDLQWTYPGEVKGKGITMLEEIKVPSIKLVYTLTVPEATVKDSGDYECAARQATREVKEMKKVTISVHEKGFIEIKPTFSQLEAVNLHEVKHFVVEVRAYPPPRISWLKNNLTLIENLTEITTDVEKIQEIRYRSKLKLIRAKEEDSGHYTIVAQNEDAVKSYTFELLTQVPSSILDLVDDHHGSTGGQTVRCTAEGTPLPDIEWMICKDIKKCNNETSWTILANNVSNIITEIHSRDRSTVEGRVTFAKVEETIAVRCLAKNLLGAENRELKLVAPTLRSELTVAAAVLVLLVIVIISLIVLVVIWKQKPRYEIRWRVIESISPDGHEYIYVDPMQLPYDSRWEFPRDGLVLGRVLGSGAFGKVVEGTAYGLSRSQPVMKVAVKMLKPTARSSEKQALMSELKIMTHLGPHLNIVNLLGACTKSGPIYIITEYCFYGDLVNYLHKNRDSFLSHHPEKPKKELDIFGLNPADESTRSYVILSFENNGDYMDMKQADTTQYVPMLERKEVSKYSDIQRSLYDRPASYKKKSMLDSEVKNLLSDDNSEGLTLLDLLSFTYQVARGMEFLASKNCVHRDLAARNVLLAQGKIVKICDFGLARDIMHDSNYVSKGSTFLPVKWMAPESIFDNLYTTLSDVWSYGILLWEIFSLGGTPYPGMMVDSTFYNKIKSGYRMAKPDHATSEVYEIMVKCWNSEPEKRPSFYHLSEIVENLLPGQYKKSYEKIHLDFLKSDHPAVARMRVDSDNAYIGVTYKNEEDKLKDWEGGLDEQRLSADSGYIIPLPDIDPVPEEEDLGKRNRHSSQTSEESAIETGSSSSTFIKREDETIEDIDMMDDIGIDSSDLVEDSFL
T11 sequence (P31749 whole entry): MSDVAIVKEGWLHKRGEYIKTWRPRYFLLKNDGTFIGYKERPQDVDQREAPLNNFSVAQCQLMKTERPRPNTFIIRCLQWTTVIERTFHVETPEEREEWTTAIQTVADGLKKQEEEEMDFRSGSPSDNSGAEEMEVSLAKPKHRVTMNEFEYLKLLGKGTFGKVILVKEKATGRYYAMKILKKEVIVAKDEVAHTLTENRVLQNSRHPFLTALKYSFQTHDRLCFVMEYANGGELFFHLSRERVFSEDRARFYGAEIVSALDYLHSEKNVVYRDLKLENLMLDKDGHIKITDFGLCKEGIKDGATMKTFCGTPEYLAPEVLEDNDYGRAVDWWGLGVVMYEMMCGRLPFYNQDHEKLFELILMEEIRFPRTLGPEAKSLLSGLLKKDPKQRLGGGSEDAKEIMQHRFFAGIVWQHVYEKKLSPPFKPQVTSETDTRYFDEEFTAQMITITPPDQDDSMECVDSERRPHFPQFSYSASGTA
T6 sequence (P11362 22-822): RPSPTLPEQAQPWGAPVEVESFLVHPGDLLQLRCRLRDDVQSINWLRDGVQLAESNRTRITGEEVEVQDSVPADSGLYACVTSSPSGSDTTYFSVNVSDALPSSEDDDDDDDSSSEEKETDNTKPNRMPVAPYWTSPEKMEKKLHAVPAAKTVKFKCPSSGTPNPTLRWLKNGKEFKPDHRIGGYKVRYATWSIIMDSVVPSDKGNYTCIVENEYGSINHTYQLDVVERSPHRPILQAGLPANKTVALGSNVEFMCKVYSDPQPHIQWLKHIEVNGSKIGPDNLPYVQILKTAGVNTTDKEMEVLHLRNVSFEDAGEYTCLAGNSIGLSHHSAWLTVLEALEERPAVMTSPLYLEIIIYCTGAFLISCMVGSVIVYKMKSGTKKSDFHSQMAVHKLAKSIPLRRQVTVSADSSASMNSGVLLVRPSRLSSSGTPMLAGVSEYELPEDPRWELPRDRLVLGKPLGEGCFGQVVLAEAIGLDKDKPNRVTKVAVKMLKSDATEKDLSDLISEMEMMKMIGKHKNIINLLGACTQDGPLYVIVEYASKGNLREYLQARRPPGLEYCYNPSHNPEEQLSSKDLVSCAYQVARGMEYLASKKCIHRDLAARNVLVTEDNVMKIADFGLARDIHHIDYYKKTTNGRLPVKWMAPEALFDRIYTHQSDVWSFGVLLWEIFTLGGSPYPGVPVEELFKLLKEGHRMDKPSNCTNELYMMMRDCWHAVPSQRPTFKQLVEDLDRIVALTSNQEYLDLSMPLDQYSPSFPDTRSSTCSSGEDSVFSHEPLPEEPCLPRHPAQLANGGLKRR
T20 sequence (Q00526 whole entry): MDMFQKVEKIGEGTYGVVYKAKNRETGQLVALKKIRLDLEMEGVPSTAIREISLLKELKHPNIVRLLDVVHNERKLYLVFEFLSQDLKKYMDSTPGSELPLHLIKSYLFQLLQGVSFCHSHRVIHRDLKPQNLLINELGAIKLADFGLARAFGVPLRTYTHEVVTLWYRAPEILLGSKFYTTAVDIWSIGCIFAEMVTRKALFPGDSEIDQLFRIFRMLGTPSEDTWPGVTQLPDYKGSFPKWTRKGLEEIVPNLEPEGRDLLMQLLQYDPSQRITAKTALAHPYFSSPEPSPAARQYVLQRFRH
T20 sequence (P24864 whole entry partner): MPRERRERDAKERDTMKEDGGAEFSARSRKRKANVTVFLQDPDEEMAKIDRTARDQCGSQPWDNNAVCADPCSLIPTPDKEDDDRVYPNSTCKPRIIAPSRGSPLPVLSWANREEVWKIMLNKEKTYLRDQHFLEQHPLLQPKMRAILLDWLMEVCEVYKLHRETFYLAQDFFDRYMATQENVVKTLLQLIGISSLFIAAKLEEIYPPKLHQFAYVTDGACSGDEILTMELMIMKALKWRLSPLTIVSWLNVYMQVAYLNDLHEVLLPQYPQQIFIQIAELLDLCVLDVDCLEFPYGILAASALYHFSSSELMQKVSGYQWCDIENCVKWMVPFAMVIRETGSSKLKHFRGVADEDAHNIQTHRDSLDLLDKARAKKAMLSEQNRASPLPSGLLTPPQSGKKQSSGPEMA
T24 sequence (O15530 whole entry): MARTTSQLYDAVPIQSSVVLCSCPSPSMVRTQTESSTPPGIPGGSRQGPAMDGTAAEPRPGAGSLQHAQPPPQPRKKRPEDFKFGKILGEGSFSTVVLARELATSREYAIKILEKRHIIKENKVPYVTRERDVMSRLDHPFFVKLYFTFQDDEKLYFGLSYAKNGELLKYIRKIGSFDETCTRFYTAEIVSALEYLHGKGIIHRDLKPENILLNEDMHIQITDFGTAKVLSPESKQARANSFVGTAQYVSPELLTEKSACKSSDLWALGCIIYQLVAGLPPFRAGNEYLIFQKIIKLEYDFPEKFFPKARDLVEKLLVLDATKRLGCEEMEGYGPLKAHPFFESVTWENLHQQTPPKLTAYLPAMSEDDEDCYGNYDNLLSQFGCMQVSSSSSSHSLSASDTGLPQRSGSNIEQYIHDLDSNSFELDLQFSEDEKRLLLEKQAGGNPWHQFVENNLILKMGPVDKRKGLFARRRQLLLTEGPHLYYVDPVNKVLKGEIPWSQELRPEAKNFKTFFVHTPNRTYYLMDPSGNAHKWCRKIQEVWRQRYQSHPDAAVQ

In the case of `COc1ccc(CCc2cc(OC)c(OC)c(OC)c2)cc1O` [Erianin], the cytotoxicity result in [1] and in [2] was “no toxicity” in each case. Further, the binding in pull-down result in data set [3] is on record as “directly bound”. Also, the “constitutive activation of MAPK signaling pathway” value in data set [4] was “inhibited constitutive activation of MAPK signaling pathway”. Further, the activity at 0.1 µM in data set [5] stood at 133%; in data set [6], 91%; in [7], 107%; in data set [8], 91%; in data set [9] it was 112%; in data set [10], 118%. Also, the activity at 0.1 µM came to 101% in [11]; 89% in data set [12]; 118% in [13]; 99% in data set [14]; 105% in data set [15]; 97% in [16]. Besides, the activity at 0.1 µM in data set [17] was 95%; in [18], 109%; in [19], 103%; in [20], 111%; in data set [21] it was 108%. In data set [22], the “BRAF WT kinase activity” value is reported as “could not suppress”. For the same compound, the “BRAF V600E kinase activity” value in data set [23] is “could not suppress”.
Turning to `COc1cc2oc(-c3ccc(O)c(O)c3)cc(=O)c2c(O)c1OC` [Cirsiliol], the activity at 10 µM in [24] worked out at 97%; in data set [10] (10 µM) it was 103%; in data set [25], 97%; in [26] it was 106%; in data set [27], 105%; in data set [14] (10 µM), 115%. Also, the activity at 10 µM in [28] was 107%; in data set [18] (10 µM) it was 106%; in data set [21] (10 µM) it was 86%.
As to `C=C1C(=O)[C@]23[C@H](O)[C@H]1CC[C@H]2[C@@]12CO[C@]3(O)[C@@H](O)[C@@H]1C(C)(C)CC[C@@H]2O` [Oridonin], the activity at 10 µM in data set [5] (10 µM) was 94%; in data set [6] (10 µM), 71%; in [7] (10 µM), 90%; in data set [24], 70%; in [8] (10 µM) it was 115%; in [9] (10 µM), 122%. For the same compound, the activity at 10 µM worked out at 63% in data set [25]; 93% in [26]; 107% in data set [11] (10 µM); 69% in data set [12] (10 µM); 72% in data set [13] (10 µM); 90% in [27]. The activity at 10 µM amounted to 90% in data set [15] (10 µM); 106% in data set [16] (10 µM); 69% in data set [28]; 105% in data set [17] (10 µM); 106% in [19] (10 µM); 71% in [20] (10 µM).

These data come from paper PMC9986241 (Signal Transduction and Targeted Therapy, 2023).
